The test system of assay [1] is panel of 250 kinases. Description: 250 kinome screening at 1 μM. It is filed as biochemical, human. Here is the method:
HDAC inhibitory activity assays were performed using FLUOR DE LYS® HDAC fluorometric activity assay kit from Enzo following the manufacturer's instructions. GloMax®-Multi Detection System (Promega) was used to read the fluorescence signals. Histone methyltransferase and demethylase enzymatic assays were performed by BPS Bioscience at 10 μM in duplicates. Kinase enzymatic assays were performed by Nanosyn using microfluidic technology. 250 kinome screening was done in duplicates using MC180295 at 1 μM. IC50 curves against 10 CDKs were created for MC180295. The human kinome tree was annotated using the online Kinome Render software (Chartier, M., Chénard, T., Barker, J., and Najmanovich, R. (2013). PeerJ 1, e126). Isotope kinase assay was performed using previously described methods (Garriga, J., Peng, J., Parreño, M., Price, D. H., Henderson, E. E., and Graña, X. (1998). Oncogene 17, 3093-3102) using recombinant active full-length CDK9/CyclinT1 (Millipore, 14-685) and SMARCA4 (Abcam, ab82237) in the presence or absence of CDK9 inhibitors.

For assay [2], the system named is cancer cell lines and normal IMR90 cells. Description: Anti-proliferation assay (trypan blue exclusion). The note with it: four days after one-time exposure. The class given is cell-based, human. Here is the method: Cells were seeded in 96-well plates at 40% confluency in triplicates. Fresh medium was changed the next day and drugs were added directly. After mixing thoroughly, plates were cultured in a 37° C. incubator for two more days. Drug-free fresh medium was changed the fourth day. The cells were collected on day 5 by trypsin, suspended in medium, mixed with trypan blue (1:1 ratio), and counted using LUNA II automated cell counter. Each sample was counted at least three times and the average numbers were used for the analysis. Each treatment condition was performed at least in triplicates.

In assay [3] the test system is HL60 cell line. In words: HL60 cell differentiation (CD11b). The class given is cell-based, human. The note with it: four-day single-dose treatment. Here is the method:
For drug screening and dose response validations, GFP positive cells were detected by Millipore Guava flow cytometer (EMD, Millipore). Cell cycle analysis was performed using BD FACSCalibur™ by propidium iodide staining four days after drug treatment. Sub-G1 population percentage was also included to measure apoptotic cell proportion. Data were analyzed using FlowJo software version 10.2. For the cell differentiation analysis, cells were washed and stained with propidium iodide (PI), CD11 b (BD Biosciences, #562793) and the isotype control IgG (BD Biosciences, #555748). Flow cytometry analysis was performed on a Millipore Guava flow cytometer (EMD, Millipore). For the ID8 in vivo experiments, ascites was drained from 5-10 mice per group and incubated in ACK buffer (Thermo Fisher) to lyse red blood cells for 10 minutes, then washed. Ascites from each mouse was individually lysed and prepared for flow cytometry. Mononuclear cells collected were cultured for 4 hours in RPMI with 5% Fetal Bovine Serum and in the presence of Cell Stimulation Cocktail (plus protein transport inhibitors; eBioscience). […] Flow cytometry acquisition was performed on an LSRII cytometer (BD Biosciences) and data were analyzed using FlowJo software version 10.2.

The test system of assay [4] is SW48 colon cancer cells. In words: SW48-luc tumors in NSG mice (bioluminescence). The class given is in vivo, mouse. Conditions: 10 mg/kg. Here is the method: SW48-luc cell line was generated by transfecting ffluc2ires-h2b-egfp into SW48 cells. GFP positive cells were sorted out one week after transfection and expanded for the in vivo experiments. NSG mice were then inoculated (i.p.) with 1×10^5 SW48-luc cells. One week later, at which time substantial tumor burden was evident by bioluminescence imaging, 5-20 mg/kg MC180295 or drug solvent was administered (i.p) every other day. 200 uL of diluted Pierce™ D-Luciferin, Monosodium Salt (Fisher, 88292) (working concentration: 15 mg/mL) was administered (i.p) into each mouse and was imaged using IVIS imaging system 5 minutes after the administration. Three vehicle treated mice and five drug treated mice were used in this study. MC180295 was dissolved in NMP, Captisol (20% w/v), PEG-400 and normal saline (PBS) in a ratio of 1:4:4:11. NMP first, followed by Captisol and PEG-400. PBS was added last.

Assay [5] deals with SMARCA4. In words: Phosphoproteomics (LC-MS/MS) in YB5 cells. It is filed as cell-based, human. Conditions: 500 nM, 4 hr. Here is the method: YB5 cells were treated with or without 500 nM MC180295 for 4 hours. Nuclear fraction was enriched using a hypotonic lysis buffer as previously described (Boden, G., Homko, C., Barrero, C. A., Stein, T. P., Chen, X., Cheung, P., Fecchio, C., Koller, S., and Merali, S. (2015), Sci Transl Med 7, 304-307). Proteins from the nuclear fraction were extracted with M-PER Mammalian Protein Extraction Reagent (Thermo Scientific, #78501) in the presence of protease and phosphatase inhibitors (Halt™ Protease Inhibitor Cocktail, #87785 and Halt™ Phosphatase Inhibitor Single-Use Cocktail, #78428). Phosphoproteins were enriched from 500 μg of nuclear extracted proteins, using a phosphoprotein purification kit (QIAGEN, #37101). Both samples were processed using in-StageTip method for digestion and peptide purification before performing LC-MS/MS proteomics analysis. The mass spectrometry proteomics data have been deposited to the ProteomeXchange Consortium via the PRIDE (Vizcaino, J. A., Csordas, A., del-Toro, N., Dianes, J. A., Griss, J., Lavidas, I., Mayer, G., Perez-Riverol, Y., Reisinger, F., Tement, T., et al. (2016). 2016 update of the PRIDE database and its related tools. Nucleic Acids Res 44, D447-456) partner repository with the dataset identifier PXD008040. […]

The subject of assay [6] is YB5 cells. In words: GFP reactivation in YB5 cells (flow cytometry). The class given is cell-based, human. The note with it: YB5 cells, one-time 4-day treatment. Background: Flow cytometry measures light scatter and fluorescence of single cells or particles in a stream.

As for `Nc1nc(N[C@H]2CC3CCC2C3)sc1C(=O)c1ccccc1[N+](=O)[O-]` (stereo partly shown) [MC180295], the “selectivity against a panel of 250 kinases” value in assay [1] is recorded as “highly selective against CDKs”. Further, the “reduction of proliferation, cancer cells vs normal cells (IMR90)” value in assay [2] is “more effective in reducing proliferation of cancer cells than normal control cells”. Further, the “differentiation marker CD11b” value in assay [3] was “significant induction”. In addition, in assay [4] (after one-week drug exposure), the “tumor shrinkage (luciferase activity)” value is on record as around 50%. Besides, the “tumor burden (luciferase activity)” value in assay [4] (after three weeks drug treatment) is reported as “lower”. In assay [5], the “phosphorylation of SMARCA4 serine/threonine residues” value is “dephosphorylated”. The “concentration at which active (GFP re-expression)” value in assay [6] came to 50 nM.

The record behind these values is patent US10941126B2, “Bridged bicycloalkyl-substituted aminothiazoles and their methods of use” (Temple University—Of The Commonwealth System of Higher …, priority 2017, dated 2021).
